Assay results reported in patent US9271943B2, “Arsenic compound solution and albumin nanoparticle and lyophilized preparation entrapping arsenic compound prepared using same” (ZHEJIANG CHINESE MEDICAL UNIVERSITY, priority 2011, dated 2016).

How the values were obtained:
[1] = tested on: human T cell lymphoma cell line jurkat cells; experiment: Detection of apoptotic bodies by light microscopy; assay type: cell-based; conditions: 0.8 μg/ml As2O3, 24 h, FIG. 12B
Procedure: Human B lymphoma cell line Daudi cells and human T lymphoma cell line jurkat cells in the control group and As2O3-treated group ([…]) which have been cultured for 24 h are collected to prepare smears, Wright-Giemsa stained, and observed under a light microscope to determine the morphological changes of cells.
1) apoptotic bodies: human B lymphoma cell line Daudi cells and human T-cell lymphoma cell line jurkat cells in the control group and in the As2O3-treated group which have been cultured or treated for 24 h are collected to prepare smears, subjected to the detection of apoptotic bodies and photographed. The results are shown in FIGS. 12A and 12B; FIG. 12A is a light microscopy image of apoptotic bodies of human T cell lymphoma cell line jurkat cells in the control group; and FIG. 12B is a light microscopy image of apoptotic bodies of human T cell lymphoma cell line jurkat cells treated with […] As2O3, and the […] As2O3 is prepared as follows: the arsenic compound solution obtained in Example 1 is first diluted with deionized water to 80 μg/ml, and then diluted to […] with 1640 culture fluid.

[2] = tested on: human malignant B cell lymphoma cell line Raji cells; conditions: Raji cells 2.0×10^5/ml, 0.5˜2.0 μmol/L As2O3, 24, 48, 72 hours; cited from earlier work
[3] = tested on: human T lymphoma cell lines jurkat cell; experiment: Mitochondrial membrane potential, JC-1 fluorescent probe; assay type: cell-based
Text: Beyotime mitochondrial membrane potential detection kit (JC-1) is used; after the cells have been labeled with the fluorescent probe, they can be observed with a fluorescence microscope using conventional settings for observing red and green fluorescence, and photographed.
Measurement principle: The JC-1 fluorescent probe is used to detect mitochondrial potential; when the mitochondrial membrane potential is high, JC-1 aggregates in the mitochondrial matrix to form a polymer, which can produce red fluorescence; when the mitochondrial membrane potential is low, JC-1 can not aggregate in the mitochondrial matrix or the aggregation decreases, in this case, JC-1 exists in monomeric form and generates green fluorescence.
100 μl of suspension cultured cell liquid is centrifugalized and washed to obtain a sample. The sample is made into smears and observed by fluorescence microscopy, and three pictures are taken respectively by using conventional filter, red fluorescence, and green fluorescence sets in the same field of view. […]

[4] = tested on: human T-cell lymphoma cell line jurkat cells; experiment: Cell apoptosis by AnnexinV/PI double staining flow cytometry; assay type: cell-based; conditions: for Apoptotic rate / Early apoptotic rate / Early apoptotic rate + Apoptotic rate / Survival rate: jurkat cells, treated for 44 hours
Procedure: The human T-cell lymphoma cell line jurkat cells in exponential growth phase are inoculated into a 6-well plate and cultured; 3 ml of jurkat cells with a cell density of 2χ10^5/ml are inoculated into each well, and the 6-well plate is placed in a 37° C., 5% CO2 incubator. After being cultured for 4 hours, […], and the arsenic compound solutions with different final As2O3 concentrations are prepared as follows: the arsenic compound solution obtained in Example 1 is first diluted with deionized water to 80 μg/ml, and then diluted to the desired concentration with 1640 culture fluid. The control group is treated with an equivalent volume of 1640 culture fluid. After being treated for 44 hours, jurkat cells in the experimental and control groups with a cell density of 1χ10^6/ml are collected, and apoptosis is studied by AnnexinV/PI double staining flow cytometry.)
The cells in the experimental and control groups with a density of 1χ10^6 jurkat cells/ml are respectively collected, washed twice with PBS, and subjected to centrifugation at 1000 r/min for 5 min, and the supernatant is discarded. Each 100 μl of the cell suspension is mixed with 5 μL Annexin-V, and then mixed with 2 μL of propidium iodide (PI). The mixtures are incubated at room temperature and dark conditions for 15 min, then mixed with 400 μl of 1χAnnexin-V binding buffer after incubation, and placed in an ice water bath. Meanwhile, the flow cytometry instrument is subjected to regular correct, besides, the normal cells in the control group are collected to prepare positive control and negative control for dead cells and survival apoptotic cells to correct the instrument, so that the instrument has more precise control threshold for different characteristic samples. Then, the stained cells were detected by flow cytometry; and similar results are obtained by experiment repeated: […]

[5] = tested on: human T-cell lymphoma cell line jurkat cells; conditions: jurkat cells 2.0×10^5/ml, As2O3 0.5, 1.0, 2.0, 4.0 μmol/L; cited from earlier work
[6] = tested on: human B lymphoma cell line Daudi cells; experiment: Trypan blue count of survival and dead Daudi cells; assay type: cell-based; conditions: for Death rate / the number of survival cells: Daudi cells
Procedure: (§1) Human lymphoma cell line cells are cultured in RPMI 1640 culture medium containing 10% new-born calf serum, placed in a 5% CO2 incubator, and cultured at 37° C. with saturated humidity. The medium is changed every 1-2 days. When the cells grow well, the drug is applied to the cells.
The growing well human B lymphoma cell line Daudi cells are cultured in a 24-well plate; each well is inoculated with 1 ml of the cell culture with a cell density of 1.5χ10^5/ml, and they are divided into experimental and control groups. […], the cells in each group are treated with the arsenic compound solution with respective concentration in terms of As2O3 added, for example, the cells in 0.8 μg/ml As2O3 group are treated with 0.8 μg/ml arsenic compound solution, and the arsenic compound solutions with different concentration are prepared by the following method: the arsenic compound solution obtained in Example 1 is first diluted with deionized water to 80 μg/ml, and then diluted to the desired concentration with 1640 culture fluid to obtain arsenic compound solutions with different concentration. The control group is added with a equal volume of culture fluid. The 24-well plate is placed in a 5% CO2 incubator, the cells are cultured at 37° C. and saturated humidity for a predetermined time, and then detected correspondingly. The cell suspensions are stained by physiological saline solution of 0.3% trypan blue for counting survival, dead cells; and the results are shown in Table 2: […]

[7] = tested on: human T-cell lymphoma cell line jurkat cells; experiment: Trypan blue count of survival and dead jurkat cells; assay type: cell-based; conditions: for effect on proliferation / cell growth of jurkat cells: 0.2-0.8 μg/ml, 24, 48, 72 h; for Death rate / the number of survival cells / total number of the cells: jurkat cells
Procedure: as §1
The human T-cell lymphoma cell line jurkat cells in exponential growth phase are inoculated into a 24-well plate and cultured; 1 ml of jurkat cells with a cell density of 2χ10^5/ml are inoculated into each well, and the 24-well plate is placed in a 37° C., 5% CO2 incubator. Jurkat cells are treated with the arsenic compound solutions with different final As2O3 concentrations of 0, 0.2, 0.4, 0.8 μg/ml for 24, 48, 72 hours, and the arsenic compound solutions with different final As2O3 concentrations are prepared as follows: the arsenic compound solution obtained in Example 1 is first diluted with deionized water to 80 μg/ml, and then diluted to the desired concentration with 1640 culture fluid. The treated cell suspensions are stained with physiological saline solution of 0.3% trypan blue for determining survival, dead cell count, and the results shown in Table 3: […]

Substance: arsenic trioxide [As2O3]
- morphological changes, apoptotic bodies [1]: nuclear fragmentation, cellular debris and apoptotic bodies appear
- effect on cell growth (number of active cells) [2]: inhibited cell growth in a dose dependent manner
- number of the cells and red fluorescence intensity of JC-1 in the mitochondria ([3]; 0.4 μg/m As2O3 treated group compared with control group): have decreased significantly
- number of the cells and red fluorescence intensity of JC-1 in the cells ([3]; 0.8 As2O3 treated group compared with 0.4 μg/m group): have also decreased significantly
- relation of jurkat cell apoptotic rate to concentration ([4]; R=0.997 (P<0.01), dose-dependent): positively correlated with the concentration
- Apoptotic rate ([4]; As2O3 0.2 μg/ml): 0.7%
- Early apoptotic rate ([4]; As2O3 0.2 μg/ml): 6.5%
- Early apoptotic rate + Apoptotic rate ([4]; As2O3 0.2 μg/ml): 7.2%
- Survival rate ([4]; As2O3 0.2 μg/ml): 92.8%
- Apoptotic rate ([4]; As2O3 0.4 μg/ml): 1.4%
- Early apoptotic rate ([4]; As2O3 0.4 μg/ml): 14.1%
- Early apoptotic rate + Apoptotic rate ([4]; As2O3 0.4 μg/ml): 15.5%
- Survival rate ([4]; As2O3 0.4 μg/ml): 84.5%
- Apoptotic rate ([4]; As2O3 0.8 μg/ml): 5.0%
- Early apoptotic rate ([4]; As2O3 0.8 μg/ml): 26.1%
- Early apoptotic rate + Apoptotic rate ([4]; As2O3 0.8 μg/ml): 31.0%
- Survival rate ([4]; As2O3 0.8 μg/ml): 69.0%
- Apoptotic rate ([4]; As2O3 1.6 μg/ml): 15.8%
- Early apoptotic rate ([4]; As2O3 1.6 μg/ml): 50.8%
- Early apoptotic rate + Apoptotic rate ([4]; As2O3 1.6 μg/ml): 66.6%
- Survival rate ([4]; As2O3 1.6 μg/ml): 33.4%
- effect on cell growth [5]: did not inhibit cell growth
- effect on cell viability and growth of Daudi cells ([6]; 0.1-0.8 μg/ml, 20 h and 68 h, dose dependence): significantly reduce the cell viability
- Death rate ([6]; As2O3 0.1 μg/ml, 20 h): 33%
- the number of survival cells ([6]; As2O3 0.1 μg/ml, 20 h): 1.40 10^5/ml
- Death rate ([6]; As2O3 0.1 μg/ml, 68 h): 66%
- the number of survival cells ([6]; As2O3 0.1 μg/ml, 68 h): 1.24 10^5/ml
- Death rate ([6]; As2O3 0.2 μg/ml, 20 h): 44%
- the number of survival cells ([6]; As2O3 0.2 μg/ml, 20 h): 1.27 10^5/ml
- Death rate ([6]; As2O3 0.2 μg/ml, 68 h): 75%
- the number of survival cells ([6]; As2O3 0.2 μg/ml, 68 h): 0.77 10^5/ml
- Death rate ([6]; As2O3 0.4 μg/ml, 20 h): 56%
- the number of survival cells ([6]; As2O3 0.4 μg/ml, 20 h): 0.99 10^5/ml
- Death rate ([6]; As2O3 0.4 μg/ml, 68 h): 88%
- the number of survival cells ([6]; As2O3 0.4 μg/ml, 68 h): 0.30 10^5/ml
- Death rate ([6]; As2O3 0.8 μg/ml, 20 h): 68%
- the number of survival cells ([6]; As2O3 0.8 μg/ml, 20 h): 0.58 10^5/ml
- Death rate ([6]; As2O3 0.8 μg/ml, 68 h): 98%
- the number of survival cells ([6]; As2O3 0.8 μg/ml, 68 h): 0.06 10^5/ml
- sensitivity of Daudi cells to As2O3-induced cell death relative to jurkat cells ([6]; comparison of Table 2 with Table 3): more sensitive
- effect on proliferation / cell growth of jurkat cells [7]: can inhibit cell growth
- effect on proliferation / cell growth of jurkat cells ([7]; listed as arsenic compound): significant inhibitory effect
- Death rate ([7]; As2O3 0.2 μg/ml, 24 h): 5.2%
- the number of survival cells ([7]; As2O3 0.2 μg/ml, 24 h): 7.56 10^5/ml
- total number of the cells ([7]; As2O3 0.2 μg/ml, 24 h): 7.98 10^5/ml
- Death rate ([7]; As2O3 0.2 μg/ml, 48 h): 16%
- the number of survival cells ([7]; As2O3 0.2 μg/ml, 48 h): 10.29 10^5/ml
- total number of the cells ([7]; As2O3 0.2 μg/ml, 48 h): 12.18 10^5/ml
- Death rate ([7]; As2O3 0.2 μg/ml, 72 h): 46.1%
- the number of survival cells ([7]; As2O3 0.2 μg/ml, 72 h): 4.95 10^5/ml
- total number of the cells ([7]; As2O3 0.2 μg/ml, 72 h): 9.19 10^5/ml
- Death rate ([7]; As2O3 0.4 μg/ml, 24 h): 25.9%
- the number of survival cells ([7]; As2O3 0.4 μg/ml, 24 h): 4.87 10^5/ml
- total number of the cells ([7]; As2O3 0.4 μg/ml, 24 h): 6.57 10^5/ml
- Death rate ([7]; As2O3 0.4 μg/ml, 48 h): 34%
- the number of survival cells ([7]; As2O3 0.4 μg/ml, 48 h): 5.12 10^5/ml
- total number of the cells ([7]; As2O3 0.4 μg/ml, 48 h): 7.73 10^5/ml
- Death rate ([7]; As2O3 0.4 μg/ml, 72 h): 50.9%
- the number of survival cells ([7]; As2O3 0.4 μg/ml, 72 h): 3.66 10^5/ml
- total number of the cells ([7]; As2O3 0.4 μg/ml, 72 h): 7.45 10^5/ml
- Death rate ([7]; As2O3 0.8 μg/ml, 24 h): 47.3%
- the number of survival cells ([7]; As2O3 0.8 μg/ml, 24 h): 2.92 10^5/ml
- total number of the cells ([7]; As2O3 0.8 μg/ml, 24 h): 5.53 10^5/ml
- Death rate ([7]; As2O3 0.8 μg/ml, 48 h): 55%
- the number of survival cells ([7]; As2O3 0.8 μg/ml, 48 h): 2.5 10^5/ml
- total number of the cells ([7]; As2O3 0.8 μg/ml, 48 h): 5.61 10^5/ml
- Death rate ([7]; As2O3 0.8 μg/ml, 72 h): 69.7%
- the number of survival cells ([7]; As2O3 0.8 μg/ml, 72 h): 1.84 10^5/ml
- total number of the cells ([7]; As2O3 0.8 μg/ml, 72 h): 6.08 10^5/ml
